Columns and labels:
MK2 [1] = molecular target: T1, MK2 (Homo sapiens (Human), UniProt P49137); test: MK2 modification assessment by whole protein mass spectrometry; assay type: binding; settings: intact MK2, 60 min, 10-fold excess of compound to protein
How it was run: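 MK2 treated with compound is analysed intact by MALDI-TOF after C4 cleanup in sinapinic acid matrix. Percent modification is the centroid mass shift against control MK2 divided by compound mass.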

MK2 [2] = molecular target: T1, MK2; test: MK2 cellular assay (Hsp27 phosphorylation in Thp-1 cells); assay type: cell-based; settings: differentiated Thp-1 cells, compound 1 hour, 50 ng/ml LPS 15 minutes, phosphorylation of Hsp27; read-out: MK2EC50
Experimental: Compounds were assayed in Thp-1 human acute monocytic leukemia cells to measure inhibition of MK2 activity. Thp-1 were grown in suspension in T225 flasks. Two days prior to assay, Thp-1 cells were spun down, counted and plated at 1×10^6 cells per well of a 12 well plate in complete media containing 10 ng/ml PMA (phorbol myristate acetate) to differentiate the cells. On day of assay, cells were washed with complete media, and compound was added to differentiated Thp-1 cells for 1 hour. Cells were washed again, and complete media containing 50 ng/ml LPS (lipopolysaccharide) was added. After 15 minutes, cells were washed once with PBS and lysed on ice with BioRad Bioplex lysis buffer. 20 μg total protein from lysates were loaded on gel and blots were probed for phosphorylation of the MK2 substrate Hsp27. Dose response inhibition of MK2 signaling in differentiated Thp-1 cells was used to determine the EC50 for compounds reported in Table A in the column entitled “MK2 EC50.”

[3] = molecular target: p38a activated, mitogen-activated protein kinase-activated protein kinase 2 (MAPKAP-K2 or MK-2) enzyme (Homo sapiens (Human), UniProt P49137); test: MK2 Omnia continuous-read kinase assay for compound potency; assay type: biochemical; settings: [MK-2]=0.4 nM, [ATP]=1.0 mM, [ST3-Sox]=10 μM
Sequence of p38a activated, mitogen-activated protein kinase-activated protein kinase 2 (MAPKAP-K2 or MK-2) enzyme (P49137 whole entry): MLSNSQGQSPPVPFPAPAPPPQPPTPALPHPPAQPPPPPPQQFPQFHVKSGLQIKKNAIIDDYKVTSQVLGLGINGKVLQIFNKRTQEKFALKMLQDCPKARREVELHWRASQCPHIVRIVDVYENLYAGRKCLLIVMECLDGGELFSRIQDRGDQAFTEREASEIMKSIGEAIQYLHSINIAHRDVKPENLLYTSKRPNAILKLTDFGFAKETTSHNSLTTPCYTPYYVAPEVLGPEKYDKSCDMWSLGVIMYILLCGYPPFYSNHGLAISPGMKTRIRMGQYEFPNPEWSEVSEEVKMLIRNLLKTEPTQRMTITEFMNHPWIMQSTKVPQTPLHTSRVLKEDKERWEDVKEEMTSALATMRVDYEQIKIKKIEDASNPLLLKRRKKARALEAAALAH
How it was run: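 Continuous Omnia fluorescence read (λex360/λem485) every 71 s after starting with 0.4 nM MK-2, with 1.0 mM ATP (appKM 8-10 μM) and 10 μM ST3-Sox substrate.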

T1 sequence (P49137 whole entry): as above

| Compound | MK2 Mass Mod (MK2 [1]) | EC50 (MK2 [2]) [nM] | IC50 [3] [nM] |
| --- | --- | --- | --- |
| C=CC(=O)Nc1cccc2[nH]c(-c3ccc4cc5n(c4c3)C3(CCC3)CNC5=O)nc12 [Compound V-63, N-(2-(1′-oxo-2′,3′-dihydro-1′H-spiro[cyclobutane-1,4′-pyrazino [1,2-a]indol]-7′-yl)-1H-benzo[d]imidazol-4-yl)acrylamide] | E (mass modification of ≥70%) | < 100 | < 100 |
| C=CC(=O)Nc1cc(-c2cc3c(cn2)CCc2c-3[nH]c3c2C(=O)NCC3)ccc1N1CCN(C)CC1 [II-1, N-(2-(4-methylpiperazin-1-yl)-5-(7-oxo-6,7,8,9,10,11-hexahydro-5H-pyrido[3′,4′:4,5]pyrrolo[2,3-f]isoquinolin-2-yl)phenyl)acrylamide] | E (mass modification of ≥70%) | < 100 | < 100 |
| C=CC(=O)Nc1cc(-c2cc3c(cn2)CCc2c-3[nH]c3c2C(=O)NCC3)ccc1OC [II-2, N-(2-methoxy-5-(7-oxo-6,7,8,9,10,11-hexahydro-5H-pyrido[3′,4′:4,5]pyrrolo[2,3-f]isoquinolin-2-yl)phenyl)acrylamide] | E (mass modification of ≥70%) | < 100 | < 100 |
| C=CC(=O)Nc1cc(-c2cc3c(cn2)CCc2c-3[nH]c3c2C(=O)NCC3)ccc1F [II-3, N-(2-fluoro-5-(7-oxo-6,7,8,9,10,11-hexahydro-5H-pyrido[3′,4′:4,5]pyrrolo[2,3-f]isoquinolin-2-yl)phenyl)acrylamide] | F (mass modification of 31-69%) | < 100 | < 100 |
| C=CC(=O)Nc1cc(-c2cc3c(cn2)CCc2c-3[nH]c3c2C(=O)NCC3)cnc1OC [II-4, N-(2-methoxy-5-(7-oxo-6,7,8,9,10,11-hexahydro-5H-pyrido[3′,4′:4,5]pyrrolo[2,3-f]isoquinolin-2-yl)pyridin-3-yl)acrylamide] | E (mass modification of ≥70%) | < 100 | < 100 |

Further lines, results first:

| MK2 Mass Mod (MK2 [1]) | EC50 (MK2 [2]) [nM] | IC50 [3] [nM] | Compound |
| --- | --- | --- | --- |
| E (mass modification of ≥70%) | 101 to 500 | 101 to 500 | C=CC(=O)Nc1cc(Cl)cc2oc(-c3ccc4cc5n(c4c3)C3(CCC3)CNC5=O)nc12 [Compound V-62, N-(6-chloro-2-(1′-oxo-2′,3′-dihydro-1′H-spiro[cyclobutane-1,4′-pyrazino [1,2-a]indol]-7′-yl)benzo[d]oxazol-4-yl)acrylamide] |
| E (mass modification of ≥70%) | < 100 | < 100 | C=CC(=O)Nc1cc(-c2cc3c(cn2)CCc2c-3[nH]c3c2C(=O)NC2(CC2)C3)cnc1OC [II-5, N-(2-methoxy-5-(7′-oxo-5′,6′,7′,8′,10′,11′-hexahydrospiro[cyclopropane-1,9′-pyrido[3′,4′:4,5]pyrrolo[2,3-f]isoquinolin]-2′-yl)pyridin-3-yl)acrylamide] |
| E (mass modification of ≥70%) | < 100 | < 100 | C=CC(=O)Nc1cc(-c2cc3c(cn2)CCc2c-3[nH]c3c2C(=O)NC2(CC2)C3)ccc1F [II-6, N-(2-fluoro-5-(7′-oxo-5′,6′,7′,8′,10′,11′-hexahydrospiro[cyclopropane-1,9′-pyrido[3′,4′:4,5]pyrrolo[2,3-f]isoquinolin]-2′-yl)phenyl)acrylamide] |
| E (mass modification of ≥70%) | < 100 | < 100 | C=CC(=O)Nc1cc(-c2cc3c(cn2)CCc2c-3[nH]c3c2C(=O)NC2(CC2)C3)cnc1OCCOC [II-8, N-(2-(2-methoxyethoxy)-5-(7′-oxo-5′,6′,7′,8′8′,1′,11′-hexahydrospiro[cyclopropane-1,9′-pyrido[3′,4′:4,5]pyrrolo[2,3-f]isoquinolin]-2′-yl)pyridin-3-yl)acrylamide] |
| E (mass modification of ≥70%) | > 1000 | < 100 | C=CC(=O)N1CCOc2ncc(-c3cc4c(cn3)CCc3c-4[nH]c4c3C(=O)NC3(CC3)C4)cc21 [II-9, 2′-(1-acryloyl-2,3-dihydro-1H-pyrido[2,3-b][1,4]oxazin-7-yl)-5′,6′,10′,11′-tetrahydrospiro[cyclopropane-1,9′-pyrido[3′,4′:4,5]pyrrolo[2,3-f]isoquinolin]-7′(8′H)-one] |

— patent US11098061B2 (Celgene CAR LLC, priority 2013, dated 2021)
